A short description of series [1]: Solubility study in aqueous buffers and organic solvents. The series is classed as physicochemical. As to the method:
The solubility of AD-EM compared to EM was evaluated in several different aqueous buffers (i.e., PBS, Water, Acetate pH 5.0) and polar solvents (i.e., methanol, ethyl acetate, acetone). The solubility study presented in Table 1 further verifies that modified AD-EM is more hydrophobic than EM due to the addition of the hydrophobic AD group. […] The increased hydrophobicity of AD-EM is desirable to enhance its ability to bind to tissue, thereby increasing its tissue residence time and therapeutic activity.
Small samples of both EM and AD-EM (1–3 mg samples for aqueous solvents (water, PBS (pH 7.4), and acetate buffer (pH 5.0)); 10 mg samples for methanol, ethyl acetate, and acetone) were placed in individual vials. Each solvent was gradually added to either the EM or AD-EM samples in 50–100 µL increments until the drug sample was completely dissolved and the solution was homogeneous. Three trials were completed for each drug in each solvent and the results are reported as an average of these three trials. The solubility limit of each drug was determined to be the minimum amount of volume of each solvent where the drug was completely soluble.

Series [2] in a line: Solubility in DMSO / DMSO-d6 observed during 1H NMR. The series is classed as physicochemical. The settings on record: DMSO / DMSO-d6, NMR sample. The method, then:
^1H NMR was used to confirm the presence of AD in the AD-EM (Figure S1). Both EM and AD-EM were dissolved in deuterated dimethyl sulfoxide (DMSO-d6) and spectra acquired. The spectra are in agreement with the reported literature spectra, thus we looked to see changes in the spectra following the conjugation reaction. The processed spectra of each species were compared to monitor structural differences between protons from EM and AD-EM. The AD-EM spectra confirms the presence of both AD and EM, as well as hydrazone formation, indicating successful reaction. In the NMR spectra of AD-EM, AD attachment is confirmed by the presence of two multiplet peaks at approximately 1.9 ppm and from 1.6–1.8 ppm, corresponding to protons from the fused cyclohexane rings of AD. In the spectra of the AD-EM, a singlet peak, corresponding to a hydrazone, appears at 9.0 ppm. […] However, peak placement is consistent between AD-EM and EM, indicating the presence of both species in the AD-EM conjugate.
EM (approximately 40 mg) and AD-EM (approximately 40 mg) were dissolved in 500 µL of DMSO-d6, and sonication was used to promote dissolution. Samples were analyzed on a 600 MHz Varian Nuclear Magnetic Resonance Spectrometer, using 128 scans and a 45 degree pulse angle. Spectra were analyzed using MesReNova software using the residual solvent peak from DMSO-d6 as the reference.

The nature of series [3]: Acidic stability / acidic conversion absorbance spectral scan. The series is classed as physicochemical. The settings on record: for Acidic conversion over several hours (absorbance pattern, words): pH 5.0 vs neutral vs acidic later neutralized, t = several hours. The method, then:
The PBS solution was diluted to a concentration of 70 μM and concentrated sulfuric acid ([…]) was added to the solution in a volume equal to that of the total volume of the initial 70 µM solution to elicit a color change detectable with absorbance spectroscopy. Two separate solutions were initially created with the acetate buffer. One solution was diluted to 70 μM and allowed to sit for several hours at room temperature. The other acetate solution was diluted to a slightly higher concentration, sat for 1 h at room temperature, was neutralized with sodium hydroxide (0.1 N) (such that the concentration of the solution was 70 µM), and sat for several more hours at room temperature. Both acetate solutions were treated with equal volumes of sulfuric acid to elicit a color change.

For a further series, the system named is S. aureus. Nature of the series: Zone of inhibition antibacterial study with drug-loaded insoluble cyclodextrin polymer disks. The series is classed as cell-based, Staphylococcus aureus. To be noted: approximately two weeks. As to the method: A zone of inhibition study against S. aureus was conducted for approximately two weeks using EM and AD-EM loaded into insoluble cyclodextrin polymer disks to evaluate whether the chemical modification altered the intrinsic antimicrobial activity of EM (Figure 4). […] It is possible that the slight decrease in antibacterial activity after 8 days in AD-EM (compared to EM) can be attributed to the presence of both species in the final AD-EM composition.
Synthesis of insoluble cyclodextrin polymer disks was carried out according to a previously published protocol by Thatiparti et al.. Briefly, 1 g cyclodextrin (CycloLab, Budapest, Hungary) was dissolved in 4 mL dimethylformamide (DMF) and stirred. The solution was cross-linked with hexamethylene diisocyanate (HDI; Sigma Aldrich, St. Louis, MO, USA) in a molar ratio of 1:0.16 (glucose residue: HDI). The solution was cured at 70 °C for 45 min and punched into 8 mm disks. Disks were washed to removed unreacted products over several days in 100% DMF, 50:50 DMF:water, and 100% water before use. […]
The antibacterial activity of EM and AD-EM loaded insoluble cyclodextrin polymer disks was evaluated against S. aureus (GFP labeled S. aureus kindly provided by Ed Greenfield, Case Western Reserve University, Cleveland, OH, USA) according to the protocol outlined by Thatiparti et al.. […]

The test system of series [4] is S. aureus biofilms. Nature of the series: Bacterial biofilm penetration study (colonies remaining in mature biofilm). It counts as cell-based, Staphylococcus aureus. To be noted: for % Control Colonies Remaining: 1.25 mg/mL, mature (72 h) biofilm, vs 90% PBS/10% DMSO control; for Original colonies in the biofilm eradicated: 1 h exposure; for Original colonies killed: 7 h exposure; for Additional killing compared to the 7 h time point: 24 h exposure. The method, then:
The ability to penetrate through the biofilm is related to the number of bacteria remaining in the biofilm after exposure to a drug compared to the control condition (90% PBS/10% DMSO). The control condition was set-up in such a way that the biofilm coated cyclodextrin polymer was placed in a solution under the same conditions used to make the drug-containing solutions. The colonies remaining in the biofilms after 1, 7, and 24 h after being treated with AD-EM, EM, or the control solution are reported in Table 2, where the remaining colonies from drug-treated biofilms are compared to the number of colonies in a control solution. After only 1 h of exposure to the drug (AD-EM or EM), nearly 30% of the original colonies in the biofilm were eradicated, and after 7 h of drug (AD-EM or EM) exposure >85% of the original colonies were killed. […] We hypothesize that this could be due to presence of planktonic bacteria naturally resistant to antibiotic effect, as well as the development of drug-resistant bacteria that are unable to be fully eradicated even after extended periods of exposure time to the drug. […] High variability in the studies reflects both the inconsistent nature of the biofilm as well as difficulty recovering bacteria to make accurate counts.
5 mm insoluble cyclodextrin polymer disks were placed in 3 mL solutions of 2× Trypticase soy broth with 30 μL of freshly cultured GFP-labeled S. aureus. Solutions were incubated at 37 °C for 72 h to form a mature biofilm. Each condition was set-up in triplicate. Following incubation, polymer disks were removed from the bacterial culture, excess broth removed, and placed in a 1.25 mg/mL drug solution of either EM or AD-EM dissolved in PBS with 10% DMSO. As a control, biofilm coated disks were also placed in a solution of just PBS and 10% DMSO. Each solution was placed in a laboratory shaker at 37 °C for either 1, 7, or 24 h. After this time, disks were removed from the drug solution, dried off, and placed in 4 mL of sterile Trypticase soy broth and homogenized for 30 s with an Omni TH homogenizer. Then, 70 μL of each solution was spread in duplicate on Trypticase soy agar plates and incubated overnight. Bacterial colonies were then counted and averaged using ImageJ software. Bacterial eradication was calculated as the percentage of colonies remaining in drug treated samples after different time points compared to the control colonies at that time point.

In series [5] the test system is S. aureus biofilms. The series is described as above. The series is classed as cell-based, Staphylococcus aureus. The settings on record: 48 and 72 h exposure, data not shown.
[6] abbreviates: aqueous buffer, thermodynamic from solid, Acetate buffer, pH 5.0, n = 3, read-out: Relative solubility in acetate buffer.
[7] abbreviates: aqueous buffer, thermodynamic from solid, Phosphate Buffered Saline (PBS), pH 7.4, n = 3, read-out: Relative solubility in PBS.
The mark [8] stands for this setting: organic solvent or mixture, thermodynamic from solid, Acetone, n = 3, read-out: Relative solubility in acetone.
[9] abbreviates: organic solvent or mixture, thermodynamic from solid, Ethyl Acetate, n = 3, read-out: Relative solubility in ethyl acetate.
Where [10] appears, read: organic solvent or mixture, thermodynamic from solid, Methanol, n = 3, read-out: Relative solubility in methanol.
The mark [11] stands for this setting: thermodynamic from solid, Water, n = 3, read-out: Relative solubility in water.

Values after ≈ are worked out from the molar mass of the structure shown. Read-outs that look alike come from different tables or passages of the source.

In general, solubility refers to how much of the substance goes into solution per volume.

With `CC[C@H]1OC(=O)[C@H](C)[C@@H](OC2C[C@@](C)(OC)[C@@H](O)[C@H](C)O2)[C@H](C)[C@@H](OC2O[C@H](C)C[C@H](N(C)C)[C@H]2O)[C@](C)(O)C[C@@H](C)/C(=N\NC(=O)C23CC4CC(CC(C4)C2)C3)[C@H](C)[C@@H](O)[C@]1(C)O` (stereo partly drawn) [AD-EM, adamantane-modified erythromycin], the solubility in series [1] (setting [6]) was 1390 ± 40 µg/mL (≈ 1.53 mM); in series [1] (setting [7]), 340 ± 10 µg/mL (≈ 0.374 mM); in series [1] (setting [8]) it was 37500 µg/mL (≈ 41.2 mM); in series [1] (setting [9]), over 40000 µg/mL; in series [1] (setting [10]), 7300 ± 200 µg/mL (≈ 8.02 mM); in series [1] (several polar solvents, comparable to EM, read-out: Solubility in several polar solvents), about 40000 µg/mL (≈ 43.9 mM). In addition, the solubility in series [1] (setting [11]) worked out at 330 ± 30 µg/mL (≈ 0.363 mM). In series [2], the “Solubility in DMSO” value is on record as “slightly insoluble”. In addition, the “Acidic conversion over several hours (absorbance pattern, words)” value in series [3] was “no distinguishable differences”. In series [3] (pH 5.0 vs neutral, t = several days), the “Acidic conversion over several days (absorbance signal, words)” value is on record as “lower absorbance signal than in neutral conditions”. Besides, the “Zone of inhibition activity” value with S. aureus is listed as “comparable activity”. Moreover, the “% Control Colonies Remaining” value in the series with S. aureus biofilms [4] (1 h drug incubation) is listed as 62.7% ± 22.1%; with S. aureus biofilms [4] (7 h drug incubation), 14.8% ± 13.7%; in the series on S. aureus biofilms [4] (24 h drug incubation), 11.7% ± 7.9%. Besides, the “Original colonies in the biofilm eradicated” value with S. aureus biofilms [4] is listed as about 30%. The compound further gave an Original colonies killed in the series on S. aureus biofilms [4] of over 85%. Besides, the “Additional killing compared to the 7 h time point” value in the series on S. aureus biofilms [4] was ~ 2%.

`CC[C@H]1OC(=O)[C@H](C)[C@@H](O[C@H]2C[C@@](C)(OC)[C@@H](O)[C@H](C)O2)[C@H](C)[C@@H](O[C@@H]2O[C@H](C)C[C@H](N(C)C)[C@H]2O)[C@](C)(O)C[C@@H](C)C(=O)[C@H](C)[C@@H](O)[C@]1(C)O` [EM, Erythromycin]: the solubility in series [1] (setting [6]) was 15000 µg/mL (≈ 20.4 mM); in series [1] (setting [7]), 1600 ± 400 µg/mL (≈ 2.18 mM); in series [1] (setting [8]), over 40000 µg/mL; in series [1] (setting [9]) it was over 40000 µg/mL; in series [1] (setting [10]) it was over 40000 µg/mL; in series [1] (setting [11]), 1500 ± 200 µg/mL (≈ 2.04 mM). In addition, in series [3] (acetate pH 5.0, several hours, after 27 N sulfuric acid, 35 μM final), the “Absorbance signal in acidic solution” value is 0.17. In addition, the “Absorbance signal, acidic solution later neutralized” value in series [3] (acetate pH 5.0 then neutralized with NaOH, several hours) came out at 0.22. In addition, in series [3] (neutral PBS, after 27 N sulfuric acid, 35 μM final), the “Absorbance signal in neutral solution” value is 0.22. Further, the “Acidic conversion over several hours (absorbance pattern, words)” value in series [3] is recorded as “noticeable acidic conversion”. In the series with S. aureus, the “Zone of inhibition activity” value is on record as “comparable activity”. Moreover, the results for the “% Control Colonies Remaining” value with S. aureus biofilms [4] (1 h drug incubation), in the series with S. aureus biofilms [4] (7 h drug incubation) and in the series on S. aureus biofilms [4] (24 h drug incubation) were 71.6% ± 40.2%, 10.5% ± 6.8% and 8.3% ± 6.6%, respectively. Moreover, in the series on S. aureus biofilms [4], the “Original colonies in the biofilm eradicated” value is listed as about 30%. In addition, the Original colonies killed in the series with S. aureus biofilms [4] is reported as over 85%. The “Additional killing compared to the 7 h time point” value with S. aureus biofilms [4] is ~ 2%. In the series with S. aureus biofilms [5], the “Colonies remaining after extended exposure” value was “approximately the same number of colonies remained”.

In the case of `NNC(=O)C12CC3CC(CC(C3)C1)C2` [AD, adamantane-1-carbohydrazide], the “Solubility in DMSO” value in series [2] is “completely insoluble”.

For the origin of these results see paper PMC5485444 (Antibiotics, 2017).
